Calls of active or inactive are those of the source.
Experiments:
[1] = target: T1, Sentrin-specific protease 8 (Homo sapiens, UniProt Q96LD8); format: functional;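 further: luminescence read-out of SENP8 inhibition, dose-response confirmation following an ultra-high-throughput screen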
T1 sequence (Q96LD8 whole entry): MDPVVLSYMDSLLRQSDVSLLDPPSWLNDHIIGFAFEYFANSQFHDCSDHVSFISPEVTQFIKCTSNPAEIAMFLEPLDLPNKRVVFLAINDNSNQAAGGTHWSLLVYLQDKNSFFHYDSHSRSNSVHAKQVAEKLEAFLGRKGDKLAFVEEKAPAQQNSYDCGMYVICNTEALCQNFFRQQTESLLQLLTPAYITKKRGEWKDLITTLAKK

[2] = target: T2, Sentrin-specific protease 7 (Homo sapiens, UniProt Q9BQF6); format: functional;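 further: Luminescence-based dose-response confirmation of ultra-high-throughput screening hits, measuring inhibition of SENP7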
T2 sequence (Q9BQF6 whole entry): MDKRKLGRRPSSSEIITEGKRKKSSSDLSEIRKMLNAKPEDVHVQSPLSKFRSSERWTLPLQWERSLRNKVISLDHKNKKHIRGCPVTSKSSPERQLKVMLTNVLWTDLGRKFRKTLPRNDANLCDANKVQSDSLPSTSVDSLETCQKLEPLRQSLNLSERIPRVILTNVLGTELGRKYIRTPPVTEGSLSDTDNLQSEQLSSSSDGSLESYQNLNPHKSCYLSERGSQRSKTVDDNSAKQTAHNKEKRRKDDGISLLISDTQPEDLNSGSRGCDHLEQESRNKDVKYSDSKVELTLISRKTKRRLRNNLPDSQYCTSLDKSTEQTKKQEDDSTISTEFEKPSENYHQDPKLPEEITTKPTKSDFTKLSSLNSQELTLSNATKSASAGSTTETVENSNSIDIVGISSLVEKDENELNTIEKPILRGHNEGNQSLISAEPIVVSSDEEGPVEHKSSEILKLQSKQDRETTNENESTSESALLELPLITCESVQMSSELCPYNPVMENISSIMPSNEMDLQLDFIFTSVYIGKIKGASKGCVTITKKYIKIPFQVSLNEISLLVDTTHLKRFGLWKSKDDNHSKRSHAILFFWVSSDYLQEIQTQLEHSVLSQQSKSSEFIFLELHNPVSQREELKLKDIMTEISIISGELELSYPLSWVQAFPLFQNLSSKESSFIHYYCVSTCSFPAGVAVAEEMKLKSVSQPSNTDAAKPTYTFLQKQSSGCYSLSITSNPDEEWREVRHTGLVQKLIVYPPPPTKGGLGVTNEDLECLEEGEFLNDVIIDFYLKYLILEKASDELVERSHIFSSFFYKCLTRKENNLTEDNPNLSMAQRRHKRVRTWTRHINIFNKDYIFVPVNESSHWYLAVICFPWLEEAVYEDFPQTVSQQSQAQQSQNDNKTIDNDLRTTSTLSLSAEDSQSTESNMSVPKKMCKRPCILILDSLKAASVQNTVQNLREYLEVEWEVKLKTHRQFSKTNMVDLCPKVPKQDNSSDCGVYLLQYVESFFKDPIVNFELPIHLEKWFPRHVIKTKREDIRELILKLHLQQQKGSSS

Hexokinase HKDC1 = target: T3, Hexokinase HKDC1 (Homo sapiens, UniProt Q2TB90); assay: inhibition of HKDC1 glucose phosphorylation – biochemical, W721R variant, dose response (AID 504729); format: functional
T3 sequence (Q2TB90 whole entry): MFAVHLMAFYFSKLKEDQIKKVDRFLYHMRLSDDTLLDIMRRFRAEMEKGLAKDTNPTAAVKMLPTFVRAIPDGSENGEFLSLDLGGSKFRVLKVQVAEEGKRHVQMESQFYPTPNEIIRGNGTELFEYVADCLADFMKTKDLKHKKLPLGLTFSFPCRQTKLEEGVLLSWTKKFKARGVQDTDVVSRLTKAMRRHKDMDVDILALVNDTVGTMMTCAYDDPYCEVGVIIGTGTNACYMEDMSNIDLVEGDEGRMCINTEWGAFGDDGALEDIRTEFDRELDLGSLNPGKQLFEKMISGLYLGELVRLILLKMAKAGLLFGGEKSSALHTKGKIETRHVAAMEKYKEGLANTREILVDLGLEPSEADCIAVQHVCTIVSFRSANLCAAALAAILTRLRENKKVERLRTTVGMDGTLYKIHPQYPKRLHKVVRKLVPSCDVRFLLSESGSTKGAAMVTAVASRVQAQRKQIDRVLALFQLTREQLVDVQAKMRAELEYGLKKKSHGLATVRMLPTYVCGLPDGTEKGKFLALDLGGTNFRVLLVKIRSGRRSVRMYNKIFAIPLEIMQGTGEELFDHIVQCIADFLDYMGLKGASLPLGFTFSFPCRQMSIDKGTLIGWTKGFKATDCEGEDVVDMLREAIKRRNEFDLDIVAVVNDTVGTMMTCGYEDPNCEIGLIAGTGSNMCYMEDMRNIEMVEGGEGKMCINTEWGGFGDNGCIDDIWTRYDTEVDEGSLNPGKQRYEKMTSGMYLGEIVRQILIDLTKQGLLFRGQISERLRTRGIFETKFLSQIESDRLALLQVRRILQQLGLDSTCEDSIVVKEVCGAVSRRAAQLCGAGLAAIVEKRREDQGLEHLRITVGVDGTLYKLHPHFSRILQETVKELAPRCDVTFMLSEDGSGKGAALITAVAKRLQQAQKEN

INS1 = assay: INS-1E survival protection against cytokine death – cell-based, luminescence, retest, dose response (AID 449756); format: functional; conditions: Rattus norvegicus;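 further: cell death triggered by IL-1 beta plus TNF-alpha plus IFN-gamma mixture; protective hits raise ATP signal compared with cytokine alone wells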
[3] = Trypanosoma cruzi growth suppression in host cells – NIH3T3 host cells, beta-gal luminescence, confirmation (AID 2044); format: functional, cell-based;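 further: intracellular parasites grown in NIH/3T3 mouse fibroblasts as host cells; luminescent beta-galactosidase reporter signal from transgenic T. cruzi replicating inside host cells; inhibitors lower the luminescence signal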

Row | SMILES | IC50 [1] | IC50 [2] | IC50 (Hexokinase HKDC1) | AC50 (INS1) | EC50 [3]
1 | O=C(/C=C/c1ccco1)Nc1ccc(Oc2ccccc2)cc1 | 17.4 µM (active) | 3.82 µM (active) | – | – | –
2 | COc1ccc(S(=O)(=O)Nc2cc(SCC(=O)O)c(O)c3ccccc23)cc1 | 9.39 µM (active) | 19.9 µM (active) | 12 µM (active) | 4.09 µM (active) | –
3 | O=C1C(Nc2ccc(O)cc2)=C/C(=N/S(=O)(=O)c2cccs2)c2ccccc21 | – | – | 8.31 µM (active) | – | 0.55 µM (active)
4 | CC1CC(=O)c2c(cc3c(-c4c(O)cc(O)c5c(O)c6c(cc45)OC(C)CC6=O)c(O)cc(O)c3c2O)O1 (stereo not given) [CEPHALOCHROMIN] | – | – | – | 3.39 µM (active) | 0.373 µM (active)

From ChEMBL document CHEMBL1201862, “PubChem BioAssay data set” (2004)
